For 34 compounds, IC50 results are on record in patent publication US8415469B2, “Compounds and methods for kinase modulation, and indications therefor” (Plexxikon Inc., priority 2005, dated 2013).

Common to all, as to assay type: biochemical
In one assay the target is T1, Ret (Homo sapiens, UniProt P07949).
T1 construct: P1378.pET-SF BI-PTP RET H661-R1012 HIS; made in house
T1 sequence (P07949 with tags, fused parts or gaps): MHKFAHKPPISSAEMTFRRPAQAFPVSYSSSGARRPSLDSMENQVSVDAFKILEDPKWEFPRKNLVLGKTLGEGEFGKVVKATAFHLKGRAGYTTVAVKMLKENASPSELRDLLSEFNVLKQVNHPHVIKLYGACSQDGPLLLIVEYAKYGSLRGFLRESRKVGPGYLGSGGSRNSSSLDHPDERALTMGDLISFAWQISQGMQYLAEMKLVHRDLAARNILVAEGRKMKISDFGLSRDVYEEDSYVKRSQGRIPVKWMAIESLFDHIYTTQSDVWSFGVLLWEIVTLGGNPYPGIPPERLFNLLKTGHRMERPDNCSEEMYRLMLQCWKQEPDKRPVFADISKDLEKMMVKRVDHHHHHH
Description: AlphaScreen kinase assay, Ret. The following applies: read-out: IC50, activity toward kinase Ret. On the technique in general: Bead proximity is the source of the signal in Alpha formats.

In another assay the target is T2, Stk6 (Homo sapiens, UniProt O14965).
T2 construct: purchased Invitrogen (Carlsbad, Calif.), screening service
T2 sequence (O14965 1-403): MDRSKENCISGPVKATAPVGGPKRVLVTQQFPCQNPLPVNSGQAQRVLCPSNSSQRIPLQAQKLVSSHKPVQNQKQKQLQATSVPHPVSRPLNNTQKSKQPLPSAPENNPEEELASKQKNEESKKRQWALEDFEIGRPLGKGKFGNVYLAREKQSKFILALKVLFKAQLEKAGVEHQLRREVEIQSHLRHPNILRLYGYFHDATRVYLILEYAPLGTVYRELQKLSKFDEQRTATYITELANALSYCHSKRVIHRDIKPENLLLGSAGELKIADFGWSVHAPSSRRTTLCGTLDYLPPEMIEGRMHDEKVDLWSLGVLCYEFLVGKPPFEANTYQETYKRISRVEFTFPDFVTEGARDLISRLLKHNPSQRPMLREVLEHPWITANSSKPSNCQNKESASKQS
Description: Z'-Lyte FRET kinase assay (Invitrogen), Stk6. The following applies: read-out: IC50, activity toward kinase Stk6.

The target of another assay is T3, B-Raf V600E (Homo sapiens, UniProt P15056, V600E).
T3 construct: P4254. pFastBacBD-CDC37 BRAF D437-K722-X, V600E; His6 with pFastBac HT leader (TEV site) (N); made in house; host or cells: Sf9 (baculovirus; chaperone CDC37 co-expressed)
Put plainly: AlphaScreen kinase assay, B-Raf V600E. The following applies: read-out: IC50, activity toward kinase B-Raf V600E.

In the next assay the target is T4, Kdr (Homo sapiens, UniProt P35968).
T4 construct: purchased Invitrogen (assay run by Invitrogen)
Put plainly: Z'-Lyte FRET kinase assay (Invitrogen), Kdr. The following applies: read-out: IC50, activity toward kinase Kdr.

A further assay deals with T5, B-Raf (Homo sapiens, UniProt P15056).
T5 construct: purchased Upstate Biotechnology
Description: AlphaScreen kinase assay, B-Raf. The note with it: read-out: IC50, activity toward kinase B-Raf.

Another assay addresses T6, c-Raf-1 (Homo sapiens, UniProt P04049).
T6 construct: purchased Upstate Biotechnology
Description: AlphaScreen kinase assay, c-Raf-1. The note with it: read-out: IC50, activity toward kinase c-Raf-1.

In the next assay the target is T7, FGFR1 (Homo sapiens, UniProt P11362, C488A/C584S).
T7 construct: P1351.pET N6 BI-PTP FGFR A458-E765-X C488A, C584S; made in house; host or cells: E. coli (PTP1B co-expressed)
Put plainly: AlphaScreen kinase assay, FGFR1. The following applies: read-out: IC50, activity toward kinase FGFR.

In the next assay the target is T8, Fms (Homo sapiens, UniProt P07333).
T8 construct: purchased Upstate Biotechnology
Description: AlphaScreen kinase assay, Fms. The following applies: read-out: IC50, activity toward kinase Fms.

A further assay concerns the target T9, Jnk1 (Homo sapiens, UniProt P45983).
T9 construct: purchased Upstate Biotechnology
Description: AlphaScreen kinase assay, Jnk1. The following applies: read-out: IC50, activity toward kinase Jnk1.

A further assay deals with T10, Kit (Homo sapiens, UniProt P10721).
T10 construct: P1332.N6 BI PTP KIT M552-K948-X COD; His6 (N); made in house; host or cells: E. coli (PTP1B co-expressed)
Description: AlphaScreen kinase assay, Kit. The note with it: read-out: IC50, activity toward kinase Kit.

The target in another assay is T11, Src (Homo sapiens, UniProt P12931).
T11 construct: P1144. pET-N6 BI-PTP SRC V86-L536-X; made in house
Description: AlphaScreen kinase assay, Src. The following applies: read-out: IC50, activity toward kinase Src.

In another assay the target is T12, Flt1 (Homo sapiens, UniProt P17948).
T12 construct: P1826.pETN6 BI-PTP FLT1 M799-D1165-X WT; His6 (N); made in house; host or cells: E. coli (PTP1B co-expressed)
T12 sequence (P17948 with tags, fused parts or gaps): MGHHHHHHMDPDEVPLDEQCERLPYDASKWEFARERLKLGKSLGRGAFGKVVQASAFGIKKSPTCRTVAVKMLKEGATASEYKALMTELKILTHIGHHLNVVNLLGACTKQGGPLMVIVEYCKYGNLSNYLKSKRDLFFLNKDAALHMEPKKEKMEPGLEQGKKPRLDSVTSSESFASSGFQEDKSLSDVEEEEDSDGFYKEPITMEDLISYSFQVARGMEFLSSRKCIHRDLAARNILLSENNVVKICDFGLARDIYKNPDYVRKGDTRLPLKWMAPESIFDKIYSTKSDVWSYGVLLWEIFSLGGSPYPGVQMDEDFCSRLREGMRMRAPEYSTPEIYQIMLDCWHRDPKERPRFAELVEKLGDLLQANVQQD
Description: AlphaScreen kinase assay, Flt1. The note with it: read-out: IC50, activity toward kinase Flt1.

T8 sequence (P07333 20-972): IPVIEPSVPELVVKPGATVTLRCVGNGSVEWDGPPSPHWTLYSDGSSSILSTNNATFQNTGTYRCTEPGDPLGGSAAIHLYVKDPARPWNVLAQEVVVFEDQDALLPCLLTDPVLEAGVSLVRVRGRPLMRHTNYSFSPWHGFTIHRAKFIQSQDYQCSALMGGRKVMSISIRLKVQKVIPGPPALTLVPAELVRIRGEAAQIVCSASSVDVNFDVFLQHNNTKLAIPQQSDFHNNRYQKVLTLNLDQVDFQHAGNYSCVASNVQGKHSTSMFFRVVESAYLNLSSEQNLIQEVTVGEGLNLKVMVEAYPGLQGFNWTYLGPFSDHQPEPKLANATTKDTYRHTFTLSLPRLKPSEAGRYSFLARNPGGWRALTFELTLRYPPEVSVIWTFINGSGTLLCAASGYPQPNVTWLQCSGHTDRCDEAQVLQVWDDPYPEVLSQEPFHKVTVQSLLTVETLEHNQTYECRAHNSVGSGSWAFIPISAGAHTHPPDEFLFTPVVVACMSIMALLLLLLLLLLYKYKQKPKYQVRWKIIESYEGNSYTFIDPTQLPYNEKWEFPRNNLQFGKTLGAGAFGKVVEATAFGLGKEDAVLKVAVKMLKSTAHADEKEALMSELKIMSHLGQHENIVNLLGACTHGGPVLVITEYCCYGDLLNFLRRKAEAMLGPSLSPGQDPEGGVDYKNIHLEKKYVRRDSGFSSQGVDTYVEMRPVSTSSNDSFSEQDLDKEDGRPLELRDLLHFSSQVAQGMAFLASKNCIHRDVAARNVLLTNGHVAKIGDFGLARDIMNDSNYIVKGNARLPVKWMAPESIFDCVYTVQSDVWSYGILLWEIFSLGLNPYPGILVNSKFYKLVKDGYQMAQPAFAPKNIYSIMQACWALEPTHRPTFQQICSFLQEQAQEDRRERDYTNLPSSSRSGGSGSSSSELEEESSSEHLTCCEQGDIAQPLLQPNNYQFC
T9 sequence (P45983 whole entry): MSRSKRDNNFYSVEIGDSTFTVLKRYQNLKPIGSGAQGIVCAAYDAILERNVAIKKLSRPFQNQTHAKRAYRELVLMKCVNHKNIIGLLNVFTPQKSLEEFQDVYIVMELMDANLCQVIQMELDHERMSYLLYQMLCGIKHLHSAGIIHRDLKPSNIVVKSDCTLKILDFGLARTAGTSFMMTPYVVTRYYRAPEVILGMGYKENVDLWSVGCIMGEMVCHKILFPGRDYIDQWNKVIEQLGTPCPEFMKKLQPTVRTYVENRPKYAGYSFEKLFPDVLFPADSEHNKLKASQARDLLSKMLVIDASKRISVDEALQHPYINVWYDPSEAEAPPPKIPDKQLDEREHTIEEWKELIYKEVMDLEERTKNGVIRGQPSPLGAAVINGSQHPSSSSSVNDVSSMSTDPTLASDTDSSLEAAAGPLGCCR
T3 sequence (P15056 with tags, fused parts or gaps V600E): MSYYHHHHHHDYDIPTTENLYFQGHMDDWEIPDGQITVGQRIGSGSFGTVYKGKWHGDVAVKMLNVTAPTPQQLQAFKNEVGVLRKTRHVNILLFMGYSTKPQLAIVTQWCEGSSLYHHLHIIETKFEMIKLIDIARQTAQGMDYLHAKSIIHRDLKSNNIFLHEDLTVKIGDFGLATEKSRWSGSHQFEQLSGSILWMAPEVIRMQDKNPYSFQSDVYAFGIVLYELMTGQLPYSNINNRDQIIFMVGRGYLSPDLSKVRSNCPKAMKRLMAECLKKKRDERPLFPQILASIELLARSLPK
T10 sequence (P10721 with tags, fused parts or gaps): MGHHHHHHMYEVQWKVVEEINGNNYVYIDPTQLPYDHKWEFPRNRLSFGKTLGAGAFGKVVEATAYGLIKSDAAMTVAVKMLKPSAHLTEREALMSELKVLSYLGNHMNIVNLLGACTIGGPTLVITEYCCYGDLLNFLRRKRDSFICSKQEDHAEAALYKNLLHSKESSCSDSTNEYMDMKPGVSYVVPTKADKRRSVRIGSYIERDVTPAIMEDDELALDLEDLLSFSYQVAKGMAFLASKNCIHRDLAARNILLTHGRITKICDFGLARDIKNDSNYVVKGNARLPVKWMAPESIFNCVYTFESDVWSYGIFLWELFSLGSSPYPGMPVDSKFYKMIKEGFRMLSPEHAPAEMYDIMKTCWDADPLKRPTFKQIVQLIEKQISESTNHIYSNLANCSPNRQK
T5 sequence (P15056 whole entry): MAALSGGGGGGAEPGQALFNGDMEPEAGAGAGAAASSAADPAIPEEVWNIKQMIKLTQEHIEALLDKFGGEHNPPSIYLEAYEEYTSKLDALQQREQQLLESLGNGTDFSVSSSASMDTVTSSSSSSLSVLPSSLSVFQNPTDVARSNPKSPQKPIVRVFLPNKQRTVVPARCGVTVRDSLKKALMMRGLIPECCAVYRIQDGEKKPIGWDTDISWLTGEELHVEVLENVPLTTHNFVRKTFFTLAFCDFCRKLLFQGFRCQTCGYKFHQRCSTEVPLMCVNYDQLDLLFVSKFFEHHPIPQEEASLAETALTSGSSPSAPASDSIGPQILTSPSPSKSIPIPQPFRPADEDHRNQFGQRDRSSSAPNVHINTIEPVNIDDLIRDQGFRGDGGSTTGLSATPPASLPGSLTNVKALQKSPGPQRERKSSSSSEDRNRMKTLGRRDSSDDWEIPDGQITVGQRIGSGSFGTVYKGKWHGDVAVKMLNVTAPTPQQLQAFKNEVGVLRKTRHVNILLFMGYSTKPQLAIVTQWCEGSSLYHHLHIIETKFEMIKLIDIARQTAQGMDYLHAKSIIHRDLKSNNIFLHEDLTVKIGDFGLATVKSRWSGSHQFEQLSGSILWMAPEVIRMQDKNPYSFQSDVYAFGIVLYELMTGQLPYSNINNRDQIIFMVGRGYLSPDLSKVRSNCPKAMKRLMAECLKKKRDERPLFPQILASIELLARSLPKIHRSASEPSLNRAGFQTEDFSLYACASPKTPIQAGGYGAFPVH
T6 sequence (P04049 whole entry): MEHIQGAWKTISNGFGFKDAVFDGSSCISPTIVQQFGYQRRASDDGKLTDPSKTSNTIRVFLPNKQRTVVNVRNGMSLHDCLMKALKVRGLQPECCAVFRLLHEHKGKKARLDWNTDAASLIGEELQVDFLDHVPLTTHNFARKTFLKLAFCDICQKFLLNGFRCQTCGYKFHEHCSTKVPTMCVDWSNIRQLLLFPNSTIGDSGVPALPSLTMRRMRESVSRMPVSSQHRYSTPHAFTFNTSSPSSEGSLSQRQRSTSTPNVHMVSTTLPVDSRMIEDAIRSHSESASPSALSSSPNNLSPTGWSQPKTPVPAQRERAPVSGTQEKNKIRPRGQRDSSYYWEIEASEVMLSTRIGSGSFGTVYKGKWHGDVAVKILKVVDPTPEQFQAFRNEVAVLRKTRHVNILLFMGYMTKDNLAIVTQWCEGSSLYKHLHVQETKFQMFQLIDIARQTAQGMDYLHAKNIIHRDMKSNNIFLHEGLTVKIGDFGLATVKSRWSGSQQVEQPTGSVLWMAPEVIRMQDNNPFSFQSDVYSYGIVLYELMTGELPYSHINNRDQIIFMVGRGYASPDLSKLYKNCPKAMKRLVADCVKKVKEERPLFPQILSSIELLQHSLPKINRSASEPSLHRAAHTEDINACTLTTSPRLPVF
T11 sequence (P12931 with tags, fused parts or gaps): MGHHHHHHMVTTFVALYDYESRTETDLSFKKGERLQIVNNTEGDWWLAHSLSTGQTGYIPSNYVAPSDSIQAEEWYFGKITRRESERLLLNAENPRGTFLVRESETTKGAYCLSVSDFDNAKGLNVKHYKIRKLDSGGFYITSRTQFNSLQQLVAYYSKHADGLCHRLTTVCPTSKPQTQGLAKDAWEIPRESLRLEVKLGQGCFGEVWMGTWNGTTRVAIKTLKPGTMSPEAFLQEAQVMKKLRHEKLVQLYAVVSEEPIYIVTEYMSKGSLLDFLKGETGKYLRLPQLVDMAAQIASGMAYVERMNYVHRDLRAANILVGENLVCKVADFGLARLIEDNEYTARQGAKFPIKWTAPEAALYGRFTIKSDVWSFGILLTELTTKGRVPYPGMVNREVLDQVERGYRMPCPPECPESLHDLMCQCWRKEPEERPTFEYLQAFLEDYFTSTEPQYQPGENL
T7 sequence (P11362 458-765 C488A/C584S): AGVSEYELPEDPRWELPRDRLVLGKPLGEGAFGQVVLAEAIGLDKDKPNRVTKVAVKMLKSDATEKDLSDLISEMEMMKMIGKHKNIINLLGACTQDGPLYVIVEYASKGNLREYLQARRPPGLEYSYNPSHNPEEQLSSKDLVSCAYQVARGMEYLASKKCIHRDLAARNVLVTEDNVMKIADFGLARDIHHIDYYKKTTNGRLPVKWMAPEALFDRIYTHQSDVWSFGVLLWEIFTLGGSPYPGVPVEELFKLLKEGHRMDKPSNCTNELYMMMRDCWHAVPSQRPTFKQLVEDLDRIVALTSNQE
Description for Src: AlphaScreen assay was used to screen additional kinases. The assay is similarly dependent on the phosphorylation of a peptide substrate. In this assay, an antibody that recognizes phosphorylated substrate is bound to an acceptor bead. The peptide substrate is attached to biotin, which binds to a donor head that contains streptavidin. Thus phosphorylated substrate is bound by antibody and streptavidin, bringing the donor and acceptor heads into close proximity when kinase is not inhibited. The donor produces singlet oxygen which results in emission from the acceptor when they are in close proximity. Conversely, when kinase is inhibited, the donor and acceptor beads are not associated and the emission from the acceptor is reduced.
AlphaScreen assays were done using compounds dissolved in DMSO to a concentration of 20 mM. The compounds were diluted accordingly to the desired final concentrations in each sample well, using 1:3 serial dilution for a total of 8 concentration points. Plates were prepared such that each kinase reaction is 20 μl in 1× kinase buffer, 5% DMSO and 10 μM ATP. After incubation of the kinase reaction for 1 hour at room temperature, 5 μl of donor beads in stop buffer (50 mM EDTA in 1× kinase buffer) was added, the sample was mixed and incubated for 20 minutes at room temperature before adding 5 μl of acceptor beads in stop buffer. The samples were incubated for 60 minutes at room temperature and the signal per well was read on AlphaQuest reader.

In the case of `Cc1ccc(Sc2c[nH]c3nccc(-c4cccc(CO)c4)c23)cc1` [Compound P-0250], the IC50 on Ret and at Stk6 was no more than 10 µM throughout.
For `Cc1ccccc1-c1ccnc2[nH]cc(Sc3cccs3)c12` [Compound P-0441], the IC50 on B-Raf V600E and on Stk6 was no more than 10 µM throughout.
With `c1cc2cc(-c3ccoc3)cnc2[nH]1` [Compound P-0372], at Stk6, the IC50 is no more than 10 µM.
The same measure, in the same setting: with `N#Cc1ccnc2[nH]cc(Sc3cccs3)c12` [Compound P-0370] the figure was no more than 10 µM; with `COc1ccccc1Cc1c[nH]c2ncccc12` [Compound P-0406], no more than 10 µM.
For `O=C(O)/C=C/c1ccc(-c2ccnc3[nH]ccc23)cc1` [Compound P-0203], the IC50 on Kdr and on Stk6 was no more than 10 µM throughout.
On to `c1coc(CNCc2c[nH]c3ncccc23)c1` [Compound P-0322], for which the IC50 on Kdr and at Stk6 was no more than 10 µM throughout.
Take `COc1cccc(-c2cnc3[nH]cc(Sc4cccs4)c3c2)c1` [Compound P-0417]: at Stk6, the IC50 is no more than 10 µM.
In the case of `CC(C)CNc1ccc(C(=O)c2c[nH]c3ncccc23)cn1` [Compound P-0251], at Stk6, the IC50 was no more than 10 µM.
On to `CCCS(=O)(=O)Nc1ccc(F)c(C(=O)c2c[nH]c3ncc(-c4cccc(N(C)C)c4)cc23)c1F` [Compound P-0876, Propane-1-sulfonic acid {3-[5-(3-dimethylamino-phenyl)-1H-pyrrolo[2,3-b]pyridine-3-carbonyl]-2,4-difluoro-phenyl}-amide], for which the half-maximal inhibitory concentration (IC50) at B-Raf, on B-Raf V600E, at c-Raf-1, on FGFR1, on Fms and at Jnk1 was no more than 10 µM throughout. In addition, the IC50 at Kit and at Src was no more than 10 µM in each case.
Regarding `COc1cccc(-c2ccnc3[nH]cc(Sc4cccs4)c23)c1` [Compound P-0160], the 50% inhibitory concentration (IC50) at B-Raf V600E and on Stk6 was no more than 10 µM in each case.
`CC(C)CNc1ccc(C(O)c2c[nH]c3ncccc23)cn1` (stereo not drawn) [Compound P-0185]: the IC50 on B-Raf V600E and on Stk6 was no more than 10 µM throughout.
For the compound `Cc1cc(C(=O)c2c[nH]c3nccc(-c4cccc(/C=C/C(=O)O)c4)c23)n(C)n1` [Compound P-0469], the IC50 at Ret and at Stk6 was no more than 10 µM throughout.
Regarding `c1coc(-c2ccnc3[nH]ccc23)c1` [Compound P-0445], the IC50 at Stk6 was no more than 10 µM.
In the case of `Clc1ccnc2[nH]cc(Sc3cccs3)c12` [Compound P-0489], the 50% inhibitory concentration (IC50) on FGFR1 and on Stk6 was no more than 10 µM throughout.
Turning to `O=C(c1ccc(NCC2CCCCC2)nc1)c1c[nH]c2ncccc12` [Compound P-0471], the IC50 at Stk6 is no more than 10 µM.
With `O=C1c2ccccc2C(=O)N1Cc1ccc(-c2cnc3[nH]ccc3c2)cc1` [Compound P-0281], the IC50 at Stk6 is no more than 10 µM.
As to `c1ccc(Nc2c[nH]c3ncccc23)cc1` [Compound P-0221, N-phenyl-1H-pyrrolo[2,3-b]pyridin-3-amine], the IC50 on Stk6 is no more than 10 µM.
Take `CN(c1ccccc1)c1ccnc2[nH]ccc12` [Compound P-0118]: the IC50 at B-Raf V600E and on Stk6 was no more than 10 µM in each case.
`FC(F)(F)c1cccc(-c2ccnc3[nH]cc(Sc4ccccn4)c23)c1` [Compound P-0290]: the IC50 on Stk6 is no more than 10 µM.
For `COc1cccc(C(=O)c2c[nH]c3ncc(-c4ccccc4)cc23)c1F` [Compound P-1338, (2-Fluoro-3-methoxy-phenyl)-(5-phenyl-1H-pyrrolo[2,3-b]pyridin-3-yl)-methanone], the IC50 on B-Raf, on c-Raf-1, on FGFR1, at Fms, at Jnk1 and at Kit was no more than 10 µM throughout. Moreover, the IC50 at Src is no more than 10 µM.
As to `Cc1ccsc1Cc1c[nH]c2ncccc12` [Compound P-0191], the IC50 on B-Raf V600E and at Stk6 was no more than 10 µM in each case.
With `Cc1cccc(N(C)c2ccnc3[nH]ccc23)c1` [Compound P-0155], at Stk6, the IC50 is no more than 10 µM.
As for `CCCC(=O)Nc1ccc(F)c(C(O)c2c[nH]c3ncc(-c4cccnc4)cc23)c1F` (stereo not drawn) [Compound P-1366], the IC50 at B-Raf V600E, at FGFR1, at Flt1, on Fms, on Jnk1 and on Kit was no more than 10 µM throughout. For the same compound, the IC50 at Src is no more than 10 µM.
`Fc1cccc(-c2ccnc3[nH]cc(Sc4cccs4)c23)c1` [Compound P-0181]: the IC50 at B-Raf V600E, at Ret and on Stk6 was no more than 10 µM in each case.
`O=C(c1cccc(F)c1)c1ccc(-c2cnc3[nH]ccc3c2)s1` [Compound P-0235]: the IC50 at Kit and at Stk6 was no more than 10 µM each time.
Take `c1csc(-c2c[nH]c3ncccc23)c1` [Compound P-0253]: the IC50 at Kit and on Stk6 was no more than 10 µM throughout.
For the compound `Cn1nc(C(C)(C)C)cc1C(=O)c1c[nH]c2nccc(-c3cccc(/C=C/C(=O)O)c3)c12` [Compound P-0546], the IC50 on Stk6 is no more than 10 µM.
`Brc1c[nH]c2ncccc12` [Compound P-0201]: at Stk6, the half-inhibitory concentration (IC50) was no more than 10 µM.
As for `Cc1ccc(S(=O)(=O)Nc2ccc(Cc3c[nH]c4ncccc34)cc2)cc1` [Compound P-0426], the IC50 on FGFR1 and on Stk6 was no more than 10 µM throughout.
Consider `O=C(c1ccc(Nc2cccc(OCc3ccccc3)c2)nc1)c1c[nH]c2ncccc12` [Compound P-0355], for which the IC50 on B-Raf V600E and at Stk6 was no more than 10 µM each time.
Turning to `O=C(c1c[nH]c2ncccc12)C1CCCCC1` [Compound P-0407], the IC50 at Stk6 is no more than 10 µM.
For the compound `COc1cccc(NC(=S)N2CCC(C(=O)c3c[nH]c4ncccc34)CC2)c1` [Compound P-0208], the IC50 on B-Raf V600E and at Stk6 was no more than 10 µM throughout.
Take `CCCS(=O)(=O)Nc1cccc(C(=O)c2c[nH]c3ncc(-c4cccnc4)cc23)c1F` [Compound P-1251, Propane-1-sulfonic acid [2-fluoro-3-(5-pyridin-3-yl-1H-pyrrolo[2,3-b]pyridine-3-carbonyl)-phenyl]-amide]: the IC50 on B-Raf, on B-Raf V600E, on c-Raf-1, on FGFR1, on Flt1 and on Fms was no more than 10 µM each time. The IC50 on Jnk1, at Kit and at Src was no more than 10 µM each time.

Usually IC50 stands for the concentration at which inhibition is half-maximal.
